{"source": "paper PMC3034256", "about": "(Chemistry & biology, 2011)", "key": {"[1]": {"test_system": "Jurkat T cells", "experiment": "TCR-mediated tyrosine phosphorylation in Jurkat T cells", "format": "cell-based", "settings": "2 h pretreatment (2 µM; TTN 2–4 µM), 10 µg/mL anti-CD3"}, "[2]": {"test_system": "panel of PTPs", "experiment": "Screen against a panel of PTPs at 10 µM", "format": "biochemical", "settings": "10 µM compound, pNPP, pH 7, 25 °C"}, "[3]": {"test_system": "Jurkat T cells", "experiment": "TCR-mediated ERK1/2 activation in Jurkat T cells", "format": "cell-based", "settings": "2 h pretreatment (2 µM), 10 µg/mL anti-CD3"}}, "data": [{"smiles": "CO[C@H]([C@H](O)CC(=O)[C@@H](C)[C@@H](O)CC[C@@H](C)[C@@H]1O[C@]2(CC[C@@H](C)[C@H](CC[C@H](C)C(C)=O)O2)CC[C@@H]1C)[C@H](OC(=O)C[C@@H](O)C1=C(C)C(=O)OC1=O)C(C)C", "note": "[TTM, tautomycin, reference compound]", "values": [{"measurement": "effect on TCR-mediated tyrosine phosphorylation", "setting": "[1]", "result": "had no effect"}, {"measurement": "inhibitory activity against the panel of PTPs", "setting": "[2]", "result": "neither TTM nor its analogs exhibited any inhibitory activity"}, {"measurement": "effect on TCR-mediated ERK1/2 activation", "setting": "[3]", "result": "no appreciable change"}]}]}
